Numbering of substitutions follows the chain as printed. “Also recorded” adds a separate entry of the source.
Assays:
E. coli RNR = details: cited from earlier work
RNR-α [1] = molecular target: T1, RNR-α (Homo sapiens, UniProt P23921); test: RNR-α-specific CDP/ATP-reductase activity inhibition assay; format: biochemical
T1 sequence (P23921 1-792): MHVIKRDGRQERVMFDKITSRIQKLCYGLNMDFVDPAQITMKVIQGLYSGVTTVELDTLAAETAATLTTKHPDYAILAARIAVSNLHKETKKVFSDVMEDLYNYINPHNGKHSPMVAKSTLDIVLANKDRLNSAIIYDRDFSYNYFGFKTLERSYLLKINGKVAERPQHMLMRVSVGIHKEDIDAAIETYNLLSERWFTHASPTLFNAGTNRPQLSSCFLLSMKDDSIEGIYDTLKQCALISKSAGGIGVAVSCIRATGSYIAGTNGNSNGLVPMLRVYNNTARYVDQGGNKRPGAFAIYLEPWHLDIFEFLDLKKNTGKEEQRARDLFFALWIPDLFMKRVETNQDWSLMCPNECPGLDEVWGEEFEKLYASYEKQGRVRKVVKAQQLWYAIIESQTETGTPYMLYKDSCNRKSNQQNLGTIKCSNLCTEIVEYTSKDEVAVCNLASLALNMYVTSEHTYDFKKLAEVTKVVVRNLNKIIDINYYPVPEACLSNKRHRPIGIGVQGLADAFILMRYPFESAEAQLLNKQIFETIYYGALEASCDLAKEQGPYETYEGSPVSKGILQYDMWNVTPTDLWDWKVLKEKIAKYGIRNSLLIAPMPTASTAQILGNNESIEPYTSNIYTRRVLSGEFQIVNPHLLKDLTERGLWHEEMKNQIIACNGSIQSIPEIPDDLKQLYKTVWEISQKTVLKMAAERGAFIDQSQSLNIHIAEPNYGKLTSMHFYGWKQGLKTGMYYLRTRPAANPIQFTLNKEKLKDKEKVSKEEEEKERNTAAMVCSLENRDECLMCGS

D57N-human RNR-α mutant = molecular target: T2, D57N-human RNR-α mutant (Homo sapiens, UniProt P23921, D57N); details: cited from earlier work
T2 sequence (P23921 1-792 D57N): T1 sequence (P23921 1-792) with D57N

RNR-β = molecular target: T3, RNR-β (Homo sapiens, UniProt P31350); test: RNR β-specific activity assay; format: biochemical
T3 sequence (P31350 1-389): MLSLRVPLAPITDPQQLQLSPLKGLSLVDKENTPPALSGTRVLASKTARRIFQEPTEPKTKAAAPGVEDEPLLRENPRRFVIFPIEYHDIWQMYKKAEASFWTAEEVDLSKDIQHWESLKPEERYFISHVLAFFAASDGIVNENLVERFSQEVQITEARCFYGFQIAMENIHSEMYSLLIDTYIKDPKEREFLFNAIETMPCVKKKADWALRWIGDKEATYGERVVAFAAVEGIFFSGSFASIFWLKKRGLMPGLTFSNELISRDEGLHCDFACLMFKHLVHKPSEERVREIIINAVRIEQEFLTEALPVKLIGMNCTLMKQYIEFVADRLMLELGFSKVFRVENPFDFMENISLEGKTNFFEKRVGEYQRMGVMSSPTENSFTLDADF

[2] = system: Flp-In 293 T-REx cells expressing D57N-α-Flag
[3] = system: Flp-In 293 T-REx cells expressing RNR-α-Flag
[4] = molecular target: T4, mutant (D57N)-mouse(m)RNR-α (Mus musculus, UniProt P07742, D57N); format: cell-based; details: 3 h treatment; 5, 50, 300 μM ClF, ClA, FlUMP; D57N-mRNR-α 3T3 cells
T4 sequence (P07742 1-792 D57N): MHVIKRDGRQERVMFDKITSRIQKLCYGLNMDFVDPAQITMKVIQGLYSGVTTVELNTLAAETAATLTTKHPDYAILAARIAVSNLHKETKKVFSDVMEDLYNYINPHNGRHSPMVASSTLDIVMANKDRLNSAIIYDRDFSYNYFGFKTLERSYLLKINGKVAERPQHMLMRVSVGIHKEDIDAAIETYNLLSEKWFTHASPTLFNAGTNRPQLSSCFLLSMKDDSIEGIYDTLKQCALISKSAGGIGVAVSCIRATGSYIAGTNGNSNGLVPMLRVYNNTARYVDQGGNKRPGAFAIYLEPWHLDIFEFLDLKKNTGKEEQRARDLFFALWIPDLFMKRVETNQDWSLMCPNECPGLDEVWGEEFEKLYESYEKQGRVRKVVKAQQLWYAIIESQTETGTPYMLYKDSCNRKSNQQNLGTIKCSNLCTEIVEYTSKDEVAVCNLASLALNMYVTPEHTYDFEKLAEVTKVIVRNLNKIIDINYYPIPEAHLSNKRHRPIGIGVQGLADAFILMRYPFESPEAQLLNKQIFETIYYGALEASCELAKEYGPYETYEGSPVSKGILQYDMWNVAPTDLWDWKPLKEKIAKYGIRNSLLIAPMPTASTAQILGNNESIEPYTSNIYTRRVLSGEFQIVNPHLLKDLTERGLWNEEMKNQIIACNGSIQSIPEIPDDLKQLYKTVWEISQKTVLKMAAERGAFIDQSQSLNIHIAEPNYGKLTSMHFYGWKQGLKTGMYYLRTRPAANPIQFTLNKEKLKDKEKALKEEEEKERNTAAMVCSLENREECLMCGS

RNR-α [5] = molecular target: T1, RNR-α; details: cited from earlier work

For `Nc1nc(Cl)nc2c1ncn2[C@@H]1O[C@H](COP(=O)(O)OP(=O)(O)O)[C@@H](O)[C@@H]1F` [ClFDP, clofarabine diphosphate], the “inhibition of E. coli RNR” value (E. coli RNR) is given as “failed to inhibit”, the “higher affinity than ClADP and FlUDP” value (RNR-α [1]) is given as 10–100 fold and the “inhibition of D57N-α-specific RNR activity” value (D57N-human RNR-α mutant) is given as “can inhibit; also recorded: able to inhibit both wt- and D57N-α with similar potency”.
For `NC(=S)N/N=C/c1ncccc1N` [triapine], the β-specific activity (RNR-β) was “suppressed”.
With `Nc1nc(Cl)nc2c1ncn2[C@@H]1O[C@H](CO)[C@@H](O)[C@@H]1F` [ClF, clofarabine] the “protection against cytotoxicity upon tet induction relative to noninduced” value [2] was over 20 fold, the “effect of RNR-α overexpression on cytotoxicity relative to noninduced cells” value [3] was “small effect on the EC50” and the “RNR reductase activity in D57N-α-expressing lines after drug treatment” value [4] was “resistance”.
For `Nc1ccn([C@@H]2O[C@H](COP(=O)(O)OP(=O)(O)OP(=O)(O)O)[C@@H](O)C2(F)F)c(=O)n1` [F2CTP], the “effect on RNR-α oligomeric state or holoenzyme activity” value (RNR-α [5]) is given as “no effect”.
